Where a name gives a salt, the structure may show the parent alone. Read-outs that look alike come from different tables or passages of the source.
Tests used:
NUGC-3 cells = test: NUGC-3 cell proliferation assay (CTG, 7 days); assay type: cell-based, human
Method: The cells were cultured in strict accordance with ATCC requirements.
Cell culture medium: 1640 culture medium, 10% serum, 1% penicillin + streptomycin.
Culture conditions: 37°C, 95% air, 5% carbon dioxide.
Compounds (20 mM) were subjected to gradient dilution in DMSO: 10 gradients, 3-fold dilution, duplicate wells.
Positive and negative controls (100% dimethyl sulfoxide) were prepared.
The compounds that were gradient diluted with DMSO and positive and negative controls (1st and 2nd step), each 75 nL, were transferred to 384-well cell culture plates by Echo550.
The cells were washed twice with PBS, digested with trypsin, and centrifuged for cell counting.
The experiment can only be carried out when the cell viability is above 90%.
The cells were plated into 384-well cell culture plates, with 200 (NUGC-3) cells and 30 µL of culture medium per well.
The 384-well microplate was placed in a cell culture incubator for 7 days.
30 µL of CTG detection reagent was added to the 384-well microplate.
The 384-well microplate was incubated for 30 min at 37°C, 5% carbon dioxide in the dark.
The reading was performed by a multi-functional microplate reader Envision.
% Inhibition is calculated as follows: % Inhibition = 100−(Signalcmpd−SignalAve_BL)/(SignalAve_VC−SignalAve_BL)*100 [formula] • Signalcmpd: Average signal of the compound in the cell plate • Signalave_vc: Average signal of the negative control in the cell plate • Signalave_BL: Average signal of the blank wells in the cell plate
IC50 was calculated by fitting % inhibition and compound concentration logarithmically to a nonlinear regression (dose response - variable slope) using Graphpad 8.0. Table 2 IC50 of selected compounds in NUGC-3 cell proliferation assay

p53-Y220C mutant protein = target: T1, p53-Y220C mutant protein (Homo sapiens, UniProt P04637, Y220C); test: In vitro DNA binding activity assay (TR-FRET); assay type: biochemical; settings: concentration required to increase the binding activity of protein to DNA by 50%
T1 construct: The recombinant Y220C p53 DBD protein with his-tag
How it was run: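 SC150, the compound concentration increasing p53-Y220C DNA binding by 50% relative to vehicle, came from background-corrected 665/615 nm TR-FRET ratios. His-tagged DBD and compound were preincubated 60 min at RT before biotin-DNA plus Eu-anti-His/streptavidin-d2 detection overnight in the dark.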

[1] = NUGC-3 cell proliferation, 7 days, CTG, read-out: IC50
[2] = Homo sapiens, NUGC-3, 168 h, NUGC-3 cell proliferation, 7 days, CTG, read-out: IC50

CC(C1CC1)n1ncc(C(=O)NCC#Cc2nn3c(N[C@@H]4CCN(C)C[C@@H]4F)cccc3c2CC(F)(F)F)c1N (single isomer, unassigned) [Compound 291A]
IC50 (NUGC-3 cells; [1]): 0.166 µM | SC150 (p53-Y220C mutant protein): 3 nM

CC(C1CC1)n1ncc(C(=O)NCC#Cc2nn3c(N[C@@H]4CCN(C)C[C@@H]4F)cccc3c2CC(F)(F)F)c1N (single isomer, unassigned) [Compound 291B]
IC50 (NUGC-3 cells; [1]): 0.162 µM | SC150 (p53-Y220C mutant protein): 4 nM

CN(C)C1CC[C@@H](Nc2cccc3c(CC(F)(F)F)c(C#CCNC(=O)c4cnn(C(C)(C)C)c4N)nn23)[C@@H](F)C1 (single isomer, unassigned) [Compound 358-A]
IC50 (NUGC-3 cells; [2]): 0.123 µM | SC150 (p53-Y220C mutant protein): 2 nM

COc1ccccc1C(=O)NCC#Cc1nn2c(N[C@@H]3CCN(C)C[C@@H]3F)cccc2c1CC(F)(F)F [Compound 071, N-[3-(7-{[(3S,4R)-3-fluoro-1-methylpiperidin-4-yl]amino}-3-(2,2,2-trifluoroethyl)pyrazolo[1,5-a]pyridin-2-yl)prop-2-yn-1-yl]-2-methoxybenzamide]
IC50 (NUGC-3 cells; [2]): 4.56 µM

CN1CC[C@@H](Nc2cccc3c(CC(F)(F)F)c(C#CCNC(=O)c4cccnc4)nn23)[C@@H](F)C1 [Compound 074, N-[3-(7-{[(3S,4R)-3-fluoro-1-methylpiperidin-4-yl]amino}-3-(2,2,2-trifluoroethyl)pyrazolo[1,5-a]pyridin-2-yl)prop-2-yn-1-yl]nicotinamide]
IC50 (NUGC-3 cells; [2]): 1.86 µM | SC150 (p53-Y220C mutant protein): 51 nM

CN1CC[C@@H](Nc2cccc3c(CC(F)(F)F)c(C#CCNC(=O)c4cn(C(C)(C)C)cn4)nn23)[C@@H](F)C1 [Compound 082, 1-tert-butyl-N-[3-(7-{[(3S,4R)-3-fluoro-1-methylpiperidin-4-yl]amino}-3-(2,2,2-trifluoroethyl)pyrazolo[1,5-a]pyridin-2-yl)prop-2-yn-1-yl]-1H-imidazole-4-carboxamide]
IC50 (NUGC-3 cells; [2]): 1.09 µM | SC150 (p53-Y220C mutant protein): 20 nM

CN1CC[C@@H](Nc2cccc3c(CC(F)(F)F)c(C#CCNC(=O)c4csc(C(C)(C)C)n4)nn23)[C@@H](F)C1 [Compound 088, 2-tert-butyl-N-[3-(7-{[(3S,4R)-3-fluoro-1-methylpiperidin-4-yl]amino}-3-(2,2,2-trifluoroethyl)pyrazolo[1,5-a]pyridin-2-yl)prop-2-yn-1-yl]-1,3-thiazole-4-carboxamide]
IC50 (NUGC-3 cells; [2]): 7.11 µM

CN1CC[C@@H](Nc2cccc3c(CC(F)(F)F)c(C#CCNC(=O)c4cnc(C(C)(C)C)s4)nn23)[C@@H](F)C1 [Compound 089, 2-tert-butyl-N-[3-(7-{[(3S,4R)-3-fluoro-1-methylpiperidin-4-yl]amino}-3-(2,2,2-trifluoroethyl)pyrazolo[1,5-a]pyridin-2-yl)prop-2-yn-1-yl]-1,3-thiazole-5-carboxamide]
IC50 (NUGC-3 cells; [2]): 8.06 µM

CN1CC[C@@H](Nc2cccc3c(CC(F)(F)F)c(C#CCNC(=O)c4coc(C(C)(C)C)n4)nn23)[C@@H](F)C1 [Compound 090, 2-tert-butyl-N-[3-(7-{[(3S,4R)-3-fluoro-1-methylpiperidin-4-yl]amino}-3-(2,2,2-trifluoroethyl)pyrazolo[1,5-a]pyridin-2-yl)prop-2-yn-1-yl]-1,3-oxazole-4-carboxamide]
IC50 (NUGC-3 cells; [2]): 6.87 µM

CN1CC[C@@H](Nc2cccc3c(CC(F)(F)F)c(C#CCNC(=O)C4CC4)nn23)[C@@H](F)C1 [Compound 135, N-[3-(7-{[(3S,4R)-3-fluoro-1-methylpiperidin-4-yl]amino}-3-(2,2,2-trifluoroethyl)pyrazolo[1,5-a]pyridin-2-yl)prop-2-yn-1-yl]cycloproplycarboxamide]
IC50 (NUGC-3 cells; Homo sapiens, NUGC-3, 168 h): 1.67 µM | SC150 (p53-Y220C mutant protein): 22 nM

CN1CC[C@@H](Nc2cccc3c(CC(F)(F)F)c(C#CCNC(=O)c4ccc(C(C)(C)O)cc4)nn23)[C@@H](F)C1 [Compound 230, N-[3-(7-{[(3S,4R)-3-fluoro-1-methylpiperidin-4-yl]amino}-3-(2,2,2-trifluoroethyl)pyrazolo[1,5-a]pyridin-2-yl)prop-2-yn-1-yl]-4-(2-hydroxyprop-2-yl)benzamide]
IC50 (NUGC-3 cells; [2]): 1.06 µM | SC150 (p53-Y220C mutant protein): 29 nM

CN1CC[C@@H](Nc2cccc3c(CC(F)(F)F)c(C#CCNC(=O)c4cnn5c4CCC5)nn23)[C@@H](F)C1 [Compound 231, N-[3-(7-{[(3S,4R)-3-fluoro-1-methylpiperidin-4-yl]amino}-3-(2,2,2-trifluoroethyl)pyrazolo[1,5-a]pyridin-2-yl)prop-2-yn-1-yl]-5,6-dihydro-4H-pyrrolo[1,2-b]pyrazole-3-carboxamide]
IC50 (NUGC-3 cells; [2]): 0.724 µM | SC150 (p53-Y220C mutant protein): 19 nM

CN1CC[C@@H](Nc2cccc3c(CC(F)(F)F)c(C#CCNC(=O)c4cnn(C(C)(C)CO)c4)nn23)[C@@H](F)C1 [Compound 232, N-[3-(7-{[(3S,4R)-3-fluoro-1-methylpiperidin-4-yl]amino}-3-(2,2,2-trifluoroethyl)pyrazolo[1,5-a]pyridin-2-yl)prop-2-yn-1-yl]-1-(1-hydroxy-2-methylprop-2-yl)-1H-pyrazole-4-carboxamide]
IC50 (NUGC-3 cells; [2]): 0.419 µM | SC150 (p53-Y220C mutant protein): 8 nM

CN1CC[C@@H](Nc2cccc3c(CC(F)(F)F)c(C#CCNC(=O)c4ccc(C(C)(C)O)nc4)nn23)[C@@H](F)C1 [Compound 236, N-[3-(7-{[(3S,4R)-3-fluoro-1-methylpiperidin-4-yl]amino}-3-(2,2,2-trifluoroethyl)pyrazolo[1,5-a]pyridin-2-yl)prop-2-yn-1-yl]-6-(2-hydroxyprop-2-yl)pyridine-3-carboxamide]
IC50 (NUGC-3 cells; [2]): 1.28 µM | SC150 (p53-Y220C mutant protein): 22 nM

CN1CC[C@@H](Nc2cccc3c(CC(F)(F)F)c(C#CCNC(=O)c4cc5n(c4)CCC5)nn23)[C@@H](F)C1 [Compound 260, N-[3-(7-{[(3S,4R)-3-fluoro-1-methylpiperidin-4-yl]amino}-3-(2,2,2-trifluoroethyl)pyrazolo[1,5-a]pyridin-2-yl)prop-2-yn-1-yl]-2,3-dihydro-1H-pyrrolizine-6-carboxamide]
IC50 (NUGC-3 cells; [2]): 1.19 µM | SC150 (p53-Y220C mutant protein): 18 nM

CN1CC[C@@H](Nc2cccc3c(CC(F)(F)F)c(C#CCNC(=O)c4ccn(C)c4)nn23)[C@@H](F)C1 [Compound 270, N-[3-(7-{[(3S,4R)-3-fluoro-1-methylpiperidin-4-yl]amino}-3-(2,2,2-trifluoroethyl)pyrazolo[1,5-a]pyridin-2-yl)prop-2-yn-1-yl]-1-methyl-1H-pyrrole-3-carboxamide]
IC50 (NUGC-3 cells; [2]): 0.818 µM | SC150 (p53-Y220C mutant protein): 13 nM

CN1CC[C@@H](Nc2cccc3c(CC(F)(F)F)c(C#CCNC(=O)c4cc(C#N)n(C)c4)nn23)[C@@H](F)C1 [Compound 271, 5-cyano-N-[3-(7-{[(3S,4R)-3-fluoro-1-methylpiperidin-4-yl]amino}-3-(2,2,2-trifluoroethyl)pyrazolo[1,5-a]pyridin-2-yl)prop-2-yn-1-yl]-1-methyl-1H-pyrrole-3-carboxamide]
IC50 (NUGC-3 cells; [2]): 0.936 µM | SC150 (p53-Y220C mutant protein): 23 nM

Cc1cc(C(=O)NCC#Cc2nn3c(N[C@@H]4CCN(C)C[C@@H]4F)cccc3c2CC(F)(F)F)c[nH]1 [Compound 272, N-[3-(7-{[(3S,4R)-3-fluoro-1-methylpiperidin-4-yl]amino}-3-(2,2,2-trifluoroethyl)pyrazolo[1,5-a]pyridin-2-yl)prop-2-yn-1-yl]-5-methyl-1H-pyrrole-3-carboxamide]
IC50 (NUGC-3 cells; [2]): 1.23 µM | SC150 (p53-Y220C mutant protein): 13 nM

CN1CC[C@@H](Nc2cccc3c(CC(F)(F)F)c(C#CCNC(=O)c4ccn(C5CC5)c4)nn23)[C@@H](F)C1 [Compound 280, 1-cycloproyl-N-[3-(7-{[(3S,4R)-3-fluoro-1-methylpiperidin-4-yl]amino}-3-(2,2,2-ethyl trifluoroacetate)pyrazolo[1,5-a]pyridin-2-yl)-prop-2-yn-1-yl]-1H-pyrrole-3-carboxamide]
IC50 (NUGC-3 cells; Homo sapiens, NUGC-3, 168 h): 1.06 µM | SC150 (p53-Y220C mutant protein): 16 nM

CN1CC[C@@H](Nc2cccc3c(CC(F)(F)F)c(C#CCNC(=O)c4cnn(CC5CCC5)c4N)nn23)[C@@H](F)C1 [Compound 284, 5-amino-1-(cyclobutylmethyl)-N-[3-(7-{[(3S,4R)-3-fluoro-1-methylpiperidin-4-yl]amino}-3-(2,2,2-trifluoroethyl)pyrazolo[1,5-a]pyridin-2-yl)prop-2-yn-1-yl]-1H-pyrazole-4-carboxamide]
IC50 (NUGC-3 cells; [2]): 0.36 µM | SC150 (p53-Y220C mutant protein): 12 nM

CCN1CC[C@@H](Nc2cccc3c(CC(F)(F)F)c(C#CCNC(=O)c4cnn(CC)c4N)nn23)[C@@H](F)C1 [Compound 364, 5-amino-1-ethyl-N-(3-(7-{[(3S,4R)-1-ethyl-3-fluoropiperidin-4-yl]amino}-3-(2,2,2-trifluoroethyl)pyrazolo[1,5-a]pyridin-2-yl)prop-2-yn-1-yl)-1H-pyrazole-4-carboxamide]
IC50 (NUGC-3 cells; [2]): 0.154 µM
